Several values for one entry are separate records, joined by “and”; a condition that tells them apart may be missing. Equal values may be shown once. Read-outs that look alike come from different tables or passages of the source.
Assays:
H3K9me2 = assay: Cellular immunostaining (In-Cell Western), H3K9Me2 antibody immunofluorescence in PC3 cells; type: cell-based, human; conditions: for H3K9me2 % inhibition, single well of triplicate / inhibition at 0.03 µM / inhibition at 0.1 µM / inhibition at 0.3 µM / inhibition at 1 µM / inhibition at 3 µM: 72 hours; for inhibition at 0.03 µM / inhibition at 0.1 µM / inhibition at 0.3 µM / inhibition at 1 µM / inhibition at 3 µM: Homo sapiens, PC-3, 72 h
Procedure: For comparison, the known G9a inhibitor UNC0638 (see structure in FIG. 1) was evaluated in this study concurrently.
Human PC3 cells (ATCC, Manassas, Va.) were grown in RPMI+10% Fetal Bovine Serum and plated at 5,000 cells per well in a 96-well plate. The following day compounds and DMSO controls were added in triplicate at the indicated concentrations. Cells were fixed following incubation at 37° C. for 72 hours with 10% formaldehyde and then permeabilized with 0.1% Triton X-100. Cells were then washed with PBS and blocked with 0.1% BSA/PBS solution. Mouse anti-H3K9me2 (1:200, AbCam #1220, Cambridge, Mass.) and rabbit anti-Histone H3 (1:500, Cell Signaling Technology #4499, Danvers, Mass.) primary antibodies in 0.3% BSA were then added together to each well and incubated overnight at 4° C. The following day cells were washed in PBS-T (PBS with 0.1% Tween) followed by addition of anti-mouse (IR800) and anti-rabbit (IR700) secondary antibodies (LI-COR Biosciences, Lincoln, Nebr.) and incubated for one hour at room temperature. Cells were then washed with PBS-T followed by PBS and liquid was removed from all wells. The plate was scanned using both the 700 nm (anti-rabbit detection) and 800 nm (anti-mouse detection) channels on the Odyssey Imaging System (LI-COR Biosciences, Lincoln, Nebr.). Data was quantified using the LI-COR imaging suite and graphed as % inhibition H3K9me2/total H3/well compared to DMSO control wells. Wells treated in triplicate were averaged for each indicated concentration and error bars represent the standard deviation (n=3).

[1] = Cytotoxicity, CellTiter Glo; type: cell-based; conditions: human, Calu6 cells, 5-day proliferation
[2] = system: human peripheral blood mononucleated cells (PBMCs); assay: Viability of PBMCs (Caspase-Glo 3/7, CellTiter Glo); type: cell-based; conditions: 0-10 uM, 48 h
Procedure: Following treatment, Caspase 3/7 activity (i.e., a marker of apoptosis) was assessed by the Caspase-Glo 3/7 assay system (FIG. 7A), and cell viability was assessed by CellTiter Glo assay (FIG. 7B).

[3] = Cytotoxicity, CellTiter Glo; type: cell-based; conditions: human, H929 cells, 5-day proliferation
[4] = Cytotoxicity, CellTiter Glo; type: cell-based; conditions: human, MV4;11 cells, 5-day proliferation
[5] = Cytotoxicity, CellTiter Glo; type: cell-based; conditions: human, RS4;11 cells, 5-day proliferation
[6] = Cytotoxicity, CellTiter Glo; type: cell-based; conditions: human, THP-1 cells, 5-day proliferation
[7] = Cytotoxicity, CellTiter Glo; type: cell-based; conditions: human, PA-1 cells, 7-day proliferation, neural crest derived lines
[8] = Cytotoxicity, CellTiter Glo; type: cell-based; conditions: human, KMS12 cells, 5-day proliferation
[9] = Cytotoxicity, CellTiter Glo; type: cell-based; conditions: human, RPMI8226 cells, 5-day proliferation
[10] = Cytotoxicity, CellTiter Glo; type: cell-based; conditions: human, HL-60 cells, 5-day proliferation
[11] = Cytotoxicity, CellTiter Glo; type: cell-based; conditions: human, Kasume-1 cells, 5-day proliferation
[12] = Cytotoxicity, CellTiter Glo; type: cell-based; conditions: human, 22RV1 cells, 5-day proliferation
[13] = Cytotoxicity, CellTiter Glo; type: cell-based; conditions: human, ZR7350 cells, 7-day proliferation, neural crest derived lines
[14] = Cytotoxicity, CellTiter Glo; type: cell-based; conditions: human, SK-N-MC cells, 7-day proliferation, neural crest derived lines
in vitro = type: cell-based; conditions: PH-1; 7-day proliferation, neural crest derived lines; read-out: IC50 cytotoxicity
[15] = Cytotoxicity, CellTiter Glo; type: cell-based; conditions: human, K562 cells, 5-day proliferation
[16] = Cytotoxicity, CellTiter Glo; type: cell-based; conditions: human, CAPO-ES1 cells, 7-day proliferation, neural crest derived lines
[17] = Cytotoxicity, CellTiter Glo; type: cell-based; conditions: human, DU145 cells, 5-day proliferation
[18] = Cytotoxicity, CellTiter Glo; type: cell-based; conditions: human, KMS11 cells, 5-day proliferation
[19] = Cytotoxicity, CellTiter Glo; type: cell-based; conditions: human, OPM2 cells, 5-day proliferation
[20] = Cytotoxicity, CellTiter Glo; type: cell-based; conditions: human, L-363 cells, 5-day proliferation
[21] = Cytotoxicity, CellTiter Glo; type: cell-based; conditions: human, SKBR3 cells, 5-day proliferation
[22] = Cytotoxicity, CellTiter Glo; type: cell-based; conditions: A-201 cells, 12-day proliferation, neural crest derived lines
[23] = Cytotoxicity, CellTiter Glo; type: cell-based; conditions: human, US2OS cells, 7-day proliferation, neural crest derived lines
[24] = Cytotoxicity, CellTiter Glo; type: cell-based; conditions: human, DaoY cells, 7-day proliferation, neural crest derived lines
[25] = Cytotoxicity, CellTiter Glo; type: cell-based; conditions: human, IMR-32 cells, 12-day proliferation, neural crest derived lines
[26] = Cytotoxicity, CellTiter Glo; type: cell-based; conditions: human, MHH-65-1 cells, 7-day proliferation, neural crest derived lines
[27] = Cytotoxicity, CellTiter Glo; type: cell-based; conditions: human, TC-71 cells, 7-day proliferation, neural crest derived lines
[28] = Cytotoxicity, CellTiter Glo; type: cell-based; conditions: human, G-401 cells, 7-day proliferation, neural crest derived lines
[29] = Cytotoxicity, CellTiter Glo; type: cell-based; conditions: human, LNCap cells, 5-day proliferation
[30] = Cytotoxicity, CellTiter Glo; type: cell-based; conditions: human, LN229 cells, 5-day proliferation

In the case of `COc1cc2c(NC3CCN(C(C)C)CC3)nc(C3CCCCC3)nc2cc1OCCCN1CCCC1` [UNC0638, reference compound], the “reduction of cellular levels of H3K9Me2” value (H3K9me2; 3 μM) is reported as ~50%, the “H3K9me2 % inhibition, single well of triplicate” value (“H3K9me2 % inhibition” below) (H3K9me2; 0.03 uM) is reported as 17.8107% and 15.8006% and the “H3K9me2 % inhibition” value (H3K9me2; 0.1 uM) is reported as 27.68% and 25.03%. The “H3K9me2 % inhibition” value (H3K9me2; 0.3 uM) was 41.05% and 40.37%, the “H3K9me2 % inhibition” value (H3K9me2; 1 uM) was 43.21% and 47.35% and the “H3K9me2 % inhibition” value (H3K9me2; 3 uM) was 48.22% and 49.38%. The inhibition at 0.03 µM (H3K9me2; 0.03 uM, n=3, read-out: H3K9me2 % inhibition, average) was 14.6%, the inhibition at 0.03 µM (H3K9me2; 0.03 uM, read-out: H3K9me2 % inhibition, single well of triplicate) was 10% and the inhibition at 0.1 µM (H3K9me2; 0.1 uM, n=3, read-out: H3K9me2 % inhibition, average) was 25.8%. The inhibition at 0.1 µM (H3K9me2; 0.1 uM, read-out: H3K9me2 % inhibition, single well of triplicate) was 24.6%, the inhibition at 0.3 µM (H3K9me2; 0.3 uM, n=3, read-out: H3K9me2 % inhibition, average) was 40.8% and the inhibition at 0.3 µM (H3K9me2; 0.3 uM, read-out: H3K9me2 % inhibition, single well of triplicate) was 41.1%. The inhibition at 1 µM (H3K9me2; 1 uM, n=3, read-out: H3K9me2 % inhibition, average) was 45.2%, the inhibition at 1 µM (H3K9me2; 1 uM, read-out: H3K9me2 % inhibition, single well of triplicate) was 44.9% and the inhibition at 3 µM (H3K9me2; 3 uM, n=3, read-out: H3K9me2 % inhibition, average) was 48.5%. The inhibition at 3 µM (H3K9me2; 3 uM, read-out: H3K9me2 % inhibition, single well of triplicate) was 47.8%, the “cell viability as measured by total histone H3” value (H3K9me2; versus no treatment) was “No difference in cell viability” and the IC50 at 5 day [1] was 0.5 µM. For the same compound, the “effect on PBMC viability (Caspase 3/7 activity and CellTiter Glo)” value [2] was “did at higher concentrations”, the IC50 at 5 day [3] was 4.6 µM and the IC50 at 5 day [4] was 1.7 µM. For the same compound, the IC50 at 5 day [5] was 3.1 µM, the IC50 at 5 day [6] was 4.9 µM and the IC50 at 7 day [7] was 0.2 µM. For the same compound, the IC50 at 5 day [8] was 4.4 µM, the IC50 at 5 day [9] was 5.1 µM and the IC50 at 5 day [10] was 6.5 µM. The IC50 at 5 day [11] was 1.1 µM, the IC50 at 5 day [12] was 0.2 µM and the IC50 at 7 day [13] was 1.2 µM. It also gave an IC50 at 7 day [14] of 0.2 µM, an IC50 at 7 day (in vitro) of 4.4 µM and an IC50 at 5 day [15] of 5.3 µM. The IC50 at 7 day [16] was 1.2 µM, the IC50 at 5 day [17] was 0.7 µM and the IC50 at 5 day [18] was 4 µM. For the same compound, the IC50 at 5 day [19] was 5.6 µM, the IC50 at 5 day [20] was 3.9 µM and the IC50 at 5 day [21] was 0.6 µM. It also gave an IC50 at 12 day [22] of 0.6 µM, an IC50 at 7 day [23] of 0.5 µM and an IC50 at 7 day [24] of 0.1 µM. For the same compound, the IC50 at 12 day [25] was 0.1 µM, the IC50 at 7 day [26] was 1.9 µM and the IC50 at 7 day [27] was 0.6 µM. For the same compound, the IC50 at 7 day [28] was 0.4 µM, the IC50 at 5 day [29] was 0.3 µM and the IC50 at 5 day [30] was 0.5 µM.
